Columns and labels:
[1] = test system: HCV genotype 1b bicistronic replicon (I389-Neo/NS3-3'/5.1); assay: genotype 1b HCV-SGR replicon model, stable Huh7.5 cells, RT-qPCR; format: cell-based, hepatitis C virus; settings: 3 days
Experimental: of at least two independent measurements.
The cells were treated for
without G418. […] HCV‐SGR RNA
results were normalized to GAPDH.
replicates in cell culture.
antiviral activities. Nat Commun 7:12777.

CypA PPIase activity = CypA PPIase activity (Homo sapiens, UniProt P62937); assay: CypA PPIase enzyme assay, chymotrypsin coupled; settings: read-out: PPIase inhibition IC50, 20°C
Sequence of CypA PPIase activity (P62937 whole entry): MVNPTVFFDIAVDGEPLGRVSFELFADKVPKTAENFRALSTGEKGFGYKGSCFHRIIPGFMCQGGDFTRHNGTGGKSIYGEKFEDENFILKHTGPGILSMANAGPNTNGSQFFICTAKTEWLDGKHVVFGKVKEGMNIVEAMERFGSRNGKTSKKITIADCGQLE

genotype 1a HCV-SGR = assay: microbe, parasite or virus in culture; format: cell-based, hepatitis C virus; settings: Hepatitis C virus, Huh7.5, read-out: EC50 used in the combination study, genotype 1a HCV-SGR
[2] = test system: genotype 1b HCV-SGR(L31V/Y93H); assay: microbe, parasite or virus in culture; format: cell-based, hepatitis C virus; settings: genotype 1b HCV-SGR, versus wild type, data not shown

Compound: Nc1ccc(CNC(=O)NCC(=O)N2CCCC2c2cccc3ccccc23)cc1 (stereo not shown) [Compound C32]
- EC50 [1]: 9.01 ± 2.04 µM
- IC50 (CypA PPIase activity): 1.49 ± 0.45 µM

Compound: COC(=O)N[C@H](C(=O)N1CC2(CC2)C[C@H]1c1nc(-c2ccc3c(c2)C(F)(F)c2cc(-c4ccc5[nH]c([C@@H]6[C@H]7CC[C@H](C7)N6C(=O)[C@@H](NC(=O)OC)C(C)C)nc5c4)ccc2-3)c[nH]1)C(C)C [LDV, ledipasvir]
- EC50 (genotype 1a HCV-SGR): 10 pM
- increase in the LDV EC50, L31V and Y93H substitutions [2]: 714 fold

Compound: Nc1ccc(CNC(=O)NCC(=O)N2CCCC2c2ccccc2Br)cc1 (stereo not shown) [Compound C35]
- EC50 [1]: 4.51 ± 0.52 µM

Compound: COc1ccccc1C1CCCN1C(=O)CNC(=O)NCc1ccc(N)cc1 (stereo not shown) [Compound C36]
- EC50 [1]: 19.7 ± 2.9 µM
- IC50 (CypA PPIase activity): 5.03 ± 1.81 µM
